PubChem BioAssay AID1963970 (Molecular Pharmacology Branch, DTP, NCI, 2024)
Several values for one entry are separate records, joined by “and”; a condition that tells them apart may be missing. Identical values can stand only once.

Test system: 931267-113-T-J1-PDC multicell spheroid viability
Assay: Anticancer human tumor 931267-113-T-J1-PDC patient-derived colon adenocarcinoma cell line growth inhibition [PI3K]
Conditions: for viability, T/C: stronger effect = lower value
Procedure, shortened: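 Stroma-containing spheroids: tumor line, pooled-donor HUVEC, hMSC. Treatments: targeted agents with PI3K inhibitors. Dosing: clinically relevant, half-log spacing, 10 microM ceiling without known Cmax. Read-out: cell viability.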

[1] = curve of first compound, second compound 0.0316 µM
[2] = curve of first compound, second compound 0.1 µM
[3] = curve of first compound, second compound 0.316 µM
[4] = curve of first compound, second compound 1 µM
[5] = second compound 0.0316 µM, first compound 0.000316 µM
[6] = second compound 0.0316 µM, first compound 0.001 µM
[7] = second compound 0.0316 µM, first compound 0.00316 µM
[8] = second compound 0.0316 µM, first compound 0.01 µM
[9] = second compound 0.0316 µM, first compound 0.0316 µM
[10] = second compound 0.0316 µM, first compound 0.1 µM
[11] = second compound 0.1 µM, first compound 0.000316 µM
[12] = second compound 0.1 µM, first compound 0.001 µM
[13] = second compound 0.1 µM, first compound 0.00316 µM
[14] = second compound 0.1 µM, first compound 0.01 µM
[15] = second compound 0.1 µM, first compound 0.0316 µM
[16] = second compound 0.1 µM, first compound 0.1 µM
[17] = second compound 0.316 µM, first compound 0.000316 µM
[18] = second compound 0.316 µM, first compound 0.001 µM
[19] = second compound 0.316 µM, first compound 0.00316 µM
[20] = second compound 0.316 µM, first compound 0.01 µM
[21] = second compound 0.316 µM, first compound 0.0316 µM
[22] = second compound 0.316 µM, first compound 0.1 µM
[23] = second compound 1 µM, first compound 0.000316 µM
[24] = second compound 1 µM, first compound 0.001 µM
[25] = second compound 1 µM, first compound 0.00316 µM
[26] = second compound 1 µM, first compound 0.01 µM
[27] = second compound 1 µM, first compound 0.0316 µM
[28] = second compound 1 µM, first compound 0.1 µM
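Note: viability read 7 days after compound addition.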

CC(=O)c1c(C)c2cnc(Nc3ccc(N4CCNCC4)cn3)nc2n(C2CCCC2)c1=O + CC(Nc1ncnc2nc[nH]c12)c1cc2cccc(Cl)c2c(=O)n1-c1ccccc1
IC50 [1]: > 100 nM
IC50 [2]: > 100 nM
IC50 [3]: > 100 nM
IC50 [4]: > 100 nM
IC50 (curve of first compound, second compound 3.16 µM): > 100 nM
IC50 (curve of first compound, second compound 10 µM): > 100 nM
viability, T/C [5]: 115%
viability, T/C [6]: 99%
viability, T/C [7]: 96.5%
viability, T/C [8]: 101%
viability, T/C [9]: 120%
viability, T/C [10]: 114%
viability, T/C [11]: 106%
viability, T/C [12]: 104%
viability, T/C [13]: 110%
viability, T/C [14]: 99.5%
viability, T/C [15]: 110%
viability, T/C [16]: 103%
viability, T/C [17]: 109%
viability, T/C [18]: 105%
viability, T/C [19]: 98.1%
viability, T/C [20]: 111%
viability, T/C [21]: 108%
viability, T/C [22]: 94.6%
viability, T/C [23]: 104%
viability, T/C [24]: 105%
viability, T/C [25]: 104%
viability, T/C [26]: 114%
viability, T/C [27]: 99%
viability, T/C [28]: 102%
viability, T/C (second compound 3.16 µM, first compound 0.000316 µM): 106%
viability, T/C (second compound 3.16 µM, first compound 0.001 µM): 95.7%
viability, T/C (second compound 3.16 µM, first compound 0.00316 µM): 90.7%
viability, T/C (second compound 3.16 µM, first compound 0.01 µM): 98%
viability, T/C (second compound 3.16 µM, first compound 0.0316 µM): 103%
viability, T/C (second compound 3.16 µM, first compound 0.1 µM): 96.1%
viability, T/C (second compound 10 µM, first compound 0.000316 µM): 97.3%
viability, T/C (second compound 10 µM, first compound 0.001 µM): 94.9%
viability, T/C (second compound 10 µM, first compound 0.00316 µM): 98%
viability, T/C (second compound 10 µM, first compound 0.01 µM): 93.3%
viability, T/C (second compound 10 µM, first compound 0.0316 µM): 94.7%
viability, T/C (second compound 10 µM, first compound 0.1 µM): 84.3%

CCCS(=O)(=O)Nc1ccc(F)c(C(=O)c2c[nH]c3ncc(-c4ccc(Cl)cc4)cc23)c1F
viability, T/C (compound 0.0316 µM): 102% (2×) and 106% and 94%
viability, T/C (compound 0.1 µM): 116% (2×) and 93.5% and 96.7%
viability, T/C (compound 0.316 µM): 109% [middle of 4 runs]
viability, T/C (compound 1 µM): 129% [middle of 4 runs]
viability, T/C (compound 10 µM): 5.21% [middle of 4 runs]
IC50 (curve of compound): 6.15 µM [middle of 4 runs]

Cn1ncnc1[C@H]1c2n[nH]c(=O)c3cc(F)cc(c23)N[C@@H]1c1ccc(F)cc1 + COc1c(OCCCN2CCOCC2)ccc2c3n(c(=NC(=O)c4cnc(N)nc4)nc12)CCN3
IC50 (curve of first compound, second compound 0.00316 µM): > 100 nM
IC50 (curve of first compound, second compound 0.01 µM): > 100 nM
IC50 [1]: > 100 nM
IC50 [2]: > 100 nM
IC50 [3]: 1.13 nM
IC50 [4]: < 0.316 nM
viability, T/C (second compound 0.00316 µM, first compound 0.000316 µM): 103%
viability, T/C (second compound 0.00316 µM, first compound 0.001 µM): 107%
viability, T/C (second compound 0.00316 µM, first compound 0.00316 µM): 107%
viability, T/C (second compound 0.00316 µM, first compound 0.01 µM): 98.7%
viability, T/C (second compound 0.00316 µM, first compound 0.0316 µM): 106%
viability, T/C (second compound 0.00316 µM, first compound 0.1 µM): 93.9%
viability, T/C (second compound 0.01 µM, first compound 0.000316 µM): 103%
viability, T/C (second compound 0.01 µM, first compound 0.001 µM): 97.9%
viability, T/C (second compound 0.01 µM, first compound 0.00316 µM): 94.2%
viability, T/C (second compound 0.01 µM, first compound 0.01 µM): 89.2%
viability, T/C (second compound 0.01 µM, first compound 0.0316 µM): 93%
viability, T/C (second compound 0.01 µM, first compound 0.1 µM): 91.3%
viability, T/C [5]: 85.2%
viability, T/C [6]: 88.9%
viability, T/C [7]: 82.1%
viability, T/C [8]: 83%
viability, T/C [9]: 81.8%
viability, T/C [10]: 79%
viability, T/C [11]: 70.2%
viability, T/C [12]: 68.5%
viability, T/C [13]: 70.7%
viability, T/C [14]: 66%
viability, T/C [15]: 69%
viability, T/C [16]: 61.3%
viability, T/C [17]: 54.3%
viability, T/C [18]: 52.5%
viability, T/C [19]: 46.1%
viability, T/C [20]: 43.4%
viability, T/C [21]: 46.4%
viability, T/C [22]: 43.4%
viability, T/C [23]: 33.3%
viability, T/C [24]: 34.1%
viability, T/C [25]: 30.9%
viability, T/C [26]: 34.4%
viability, T/C [27]: 36.6%
viability, T/C [28]: 30.3%
